Laboratory results from ChEMBL document CHEMBL3638529, “Spiro-oxindole MDM2 antagonists” (2015).

Biological target: E3 ubiquitin-protein ligase Mdm2 (Homo sapiens, UniProt Q00987)
Assay: Fluorescence-Polarization Binding Assay: The binding affinity of the MDM2 inhibitors was determined using an optimized, sensitive and quantitative fluorescence polarization-based (FP-based) binding assay using a recombinant human His-tagged MDM2 protein (residues 1-118) and a fluorescently tagged p53-based peptide.The design of the fluorescence probe was based upon a previously reported …
Description: The assay was performed in the buffer: 100 mM potassium phosphate, pH 7.5; 100 ug/mL bovine gamma globulin; 0.02% sodium azide, 0.01% Triton X-100).

E3 ubiquitin-protein ligase Mdm2, sequence (Q00987 whole entry, the tested form may be a part): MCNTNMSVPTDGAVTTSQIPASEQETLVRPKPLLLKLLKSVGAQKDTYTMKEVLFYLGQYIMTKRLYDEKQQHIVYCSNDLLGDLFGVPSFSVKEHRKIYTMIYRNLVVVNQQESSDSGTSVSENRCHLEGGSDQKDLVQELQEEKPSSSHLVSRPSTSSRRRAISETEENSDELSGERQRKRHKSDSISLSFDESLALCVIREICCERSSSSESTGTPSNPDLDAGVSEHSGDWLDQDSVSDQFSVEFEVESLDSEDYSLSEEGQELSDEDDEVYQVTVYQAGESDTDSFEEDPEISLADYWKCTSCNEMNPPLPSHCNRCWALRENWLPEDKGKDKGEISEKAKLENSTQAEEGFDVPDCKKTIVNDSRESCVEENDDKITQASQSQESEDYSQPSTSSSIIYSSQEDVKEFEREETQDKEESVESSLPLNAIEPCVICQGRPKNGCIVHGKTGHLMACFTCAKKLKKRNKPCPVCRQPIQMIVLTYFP

Row | IC50 [µM] | Structure (SMILES)
1 | < 1 | CC(C)(C)C[C@H]1N[C@@H](C(=O)NCC[C@H]2CC[C@H](NS(C)(=O)=O)C2)[C@H](c2cccc(Cl)c2F)[C@@]12C(=O)Nc1cc(Cl)c(F)cc12
2 | < 1 | CC(C)(C)C[C@H]1N[C@@H](C(=O)NCC[C@H]2CC[C@H](N)C2)[C@H](c2cccc(Cl)c2F)[C@@]12C(=O)Nc1cc(Cl)c(F)cc12
3 | < 1 | CC(C)(C)C[C@H]1N[C@@H](C(=O)NCCCNS(C)(=O)=O)[C@H](c2cccc(Cl)c2F)[C@@]12C(=O)Nc1cc(Cl)c(F)cc12
4 | < 1 | CC(C)(C)C[C@H]1N[C@@H](C(=O)NCCNS(C)(=O)=O)[C@H](c2cccc(Cl)c2F)[C@@]12C(=O)Nc1cc(Cl)c(F)cc12
